ChEMBL document CHEMBL5331104, “Discovery of BRD4-HDAC Dual Inhibitors with Improved Fungal Selectivity and Potent Synergistic Antifungal Activity against Fluconazole-Resistant Candida albicans” (J Med Chem, 2023)
In brackets after ≈: the same amount, converted by molar mass.

Experiments:
Candida albicans [1] = experiment: microbe, parasite or virus in culture; format: functional; conditions: 0304103, time 24 hrs
Description: Synergetic antifungal activity against Candida albicans 0304103 assessed as microbial growth inhibition incubated for 24 hrs in the presence of fluconazole by checkerboard microdilution method

Candida albicans [2] = experiment: Antifungal activity against Candida albicans SC5314 assessed as fungal growth inhibition incubated for 24 hrs by broth dilution method; format: functional
HEL = experiment: Antiproliferative activity against human HEL cells incubated for 48 hrs by CCK8 assay; format: functional, cell-based
Candida albicans [3] = experiment: microbe, parasite or virus in culture; format: functional; conditions: 0304103
Description: Antifungal activity against Candida albicans 0304103 assessed as microbial growth inhibition

K562 = experiment: Antiproliferative activity against human K562 cells incubated for 48 hrs by CCK8 assay; format: functional, cell-based; conditions: K562, 48 h
Histone deacetylase = experiment: Inhibition of total HDAC in human HUVEC cells using Boc-Lys(Ac)-AMC as substrate preincubated for 12 hrs followed by substrate addition measured after 6 hrs by microtiter plate reader analysis; format: cell-based
Cryptococcus neoformans = experiment: Antifungal activity against Cryptococcus neoformans H99 assessed as fungal growth inhibition incubated for 24 hrs by broth dilution method; format: functional
Histone deacetylase 1 = Histone deacetylase 1 (Homo sapiens, UniProt Q13547); experiment: Inhibition of full-length recombinant human HDAC1 (1 to 482 residues) expressed in baculovirus infected insect cells using […] as substrate incubated for 30 mins by fluorescence based analysis; parameters: species or system Insect cell
HL-60 = experiment: Antiproliferative activity against human HL-60 cells incubated for 48 hrs by CCK8 assay; format: functional, cell-based; conditions: HL-60, 48 h
in vitro = conditions: human, HUVEC cells
Description: Cytotoxicity against HUVECs assessed as inhibition of cell growth incubated for 48 hrs by CCK8 assay

Candida albicans [4] = format: functional, 0304103; conditions: time 24 hrs
Description: Synergetic antifungal activity against Candida albicans 0304103 assessed as fractional inhibitory concentration index incubated for 24 hrs in the presence of fluconazole by checkerboard microdilution method

Histone deacetylase 1, sequence (Q13547 whole entry, the tested form may be a part): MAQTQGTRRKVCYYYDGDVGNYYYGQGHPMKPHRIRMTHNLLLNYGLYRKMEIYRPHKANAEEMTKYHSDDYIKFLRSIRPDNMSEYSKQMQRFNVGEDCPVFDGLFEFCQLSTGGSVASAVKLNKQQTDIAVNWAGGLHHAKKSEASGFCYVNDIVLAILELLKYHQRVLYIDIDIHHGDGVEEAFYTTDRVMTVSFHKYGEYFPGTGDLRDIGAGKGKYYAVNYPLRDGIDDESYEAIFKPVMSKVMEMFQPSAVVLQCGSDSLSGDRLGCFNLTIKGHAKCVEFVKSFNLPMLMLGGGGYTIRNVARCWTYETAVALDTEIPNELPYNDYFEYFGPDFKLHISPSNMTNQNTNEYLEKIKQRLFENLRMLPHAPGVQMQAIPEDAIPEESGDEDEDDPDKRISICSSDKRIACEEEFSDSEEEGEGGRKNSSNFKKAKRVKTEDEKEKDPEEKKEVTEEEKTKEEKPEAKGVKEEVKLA

Compound	MIC80 (Candida albicans [1]) [µg/mL]	MIC80 (Candida albicans [2]) [µg/mL]	IC50 (HEL) [µM]	MIC80 (Candida albicans [3]) [µg/mL]	IC50 (K562) [µM]	IC50 (Histone deacetylase) [µM]	MIC80 (Cryptococcus neoformans) [µg/mL]	IC50 (Histone deacetylase 1) [µM]	IC50 (HL-60) [µM]	IC50 at 48 h (in vitro) [µM]	fractional inhibitory concentration index (FICI) (Candida albicans [4])
Cc1nnc2n1-c1sc3c(c1C(c1ccc(Cl)cc1)=N[C@H]2CC(=O)Nc1ccc(C(=O)NO)cc1)CCCC3	4 (≈ 7.13 µM)	> 64	0.29	> 64	0.41	0.047	4 (≈ 7.13 µM)	0.72	0.31	2.6	0.078
Cc1nnc2n1-c1ccccc1C(c1ccccc1)=N[C@H]2CC(=O)Nc1ccc(C(=O)NO)cc1	4 (≈ 8.57 µM)	> 64	> 10	> 64	3.3	0.065	16 (≈ 34.3 µM)	0.062	1.7	25	0.094
Cc1nnc2n1-c1sc3c(c1C(c1ccc(Cl)cc1)=N[C@H]2CC(=O)Nc1ccc(CC(=O)NO)cc1)CCCC3	4 (≈ 6.96 µM)	> 64	4	> 64	> 10	2.2	16 (≈ 27.8 µM)	1.4	1.1	5.9	0.07
Cc1nnc2n1-c1ccccc1C(c1ccccc1)=N[C@H]2CC(=O)Nc1ccc(/C=C/C(=O)NO)cc1	4 (≈ 8.12 µM)	> 64	> 10	> 64	1.9	0.016	8 (≈ 16.2 µM)	0.1	7	14	0.094
Cc1nnc2n1-c1ccc(Cl)cc1C(c1ccccc1Cl)=N[C@H]2CC(=O)Nc1ccc(/C=C/C(=O)NO)cc1	4 (≈ 7.12 µM)	> 64	8.3	> 64	3.1	0.035	8 (≈ 14.2 µM)	1.3	4.2	7.3	0.07
Cc1nnc2n1-c1ccccc1C(c1ccc(Cl)cc1)=N[C@H]2CC(=O)Nc1ccc(/C=C/C(=O)NO)cc1	4 (≈ 7.59 µM)	> 64	> 10	> 64	1.5	0.42	8 (≈ 15.2 µM)	0.63	4.7	8.1	0.066
Cc1nnc2n1-c1ccccc1C(c1ccc(Cl)cc1)=N[C@H]2CC(=O)Nc1ccc(CC(=O)NO)cc1	32 (≈ 62.1 µM)	> 64	> 10	> 64	> 10	2.8	32 (≈ 62.1 µM)	2.4	1.1	19	0.75
Cc1nnc2n1-c1ccccc1C(c1ccc(Cl)cc1)=N[C@H]2CC(=O)NCc1ccc(C(=O)NO)cc1	16 (≈ 31.1 µM)	> 64	> 10	> 64	> 10	2.7	32 (≈ 62.1 µM)	0.56	7.1	23	0.28
Cc1ccc(C2=N[C@@H](CC(=O)Nc3ccc(C(=O)NO)cc3)c3nnc(C)n3-c3ccccc32)cc1	4 (≈ 8.32 µM)	> 64	0.39	> 64	> 10	0.13	32 (≈ 66.6 µM)	51	0.34	2.8	0.078
Cc1nnc2n1-c1ccc(Cl)cc1C(c1ccccc1Cl)=N[C@H]2CC(=O)NCc1ccc(C(=O)NO)cc1	8 (≈ 14.6 µM)	> 64	> 10	> 64	> 10	3.4	16 (≈ 29.1 µM)	1.9	> 10	48	0.16
Cc1ccc(C2=N[C@@H](CC(=O)Nc3ccc(/C=C/C(=O)NO)cc3)c3nnc(C)n3-c3ccccc32)cc1	4 (≈ 7.9 µM)	> 64	9	> 64	1.4	0.63	8 (≈ 15.8 µM)	0.18	4.2	14	0.094
Cc1nnc2n1-c1ccc(Cl)cc1C(c1ccccc1Cl)=N[C@H]2CC(=O)Nc1ccc(CC(=O)NO)cc1	8 (≈ 14.6 µM)	> 64	> 10	> 64	8	4.4	16 (≈ 29.1 µM)	1.1	9.7	19	0.14
Cc1nnc2n1-c1sc3c(c1C(c1ccc(Cl)cc1)=N[C@H]2CC(=O)Nc1ccc(/C=C/C(=O)NO)cc1)CCCC3	4 (≈ 6.81 µM)	> 64	> 10	> 64	2.4	0.15	4 (≈ 6.81 µM)	0.79	5.1	4.7	0.066
Cc1nnc2n1-c1ccccc1C(c1ccccc1)=N[C@H]2CC(=O)Nc1ccc(CC(=O)NO)cc1	8 (≈ 16.6 µM)	> 64	> 10	> 64	> 10	6.5	32 (≈ 66.6 µM)	0.73	4.4	24	0.19
Cc1nnc2n1-c1ccccc1C(c1ccccc1)=N[C@H]2CC(=O)NCc1ccc(C(=O)NO)cc1	8 (≈ 16.6 µM)	> 64	> 10	> 64	> 10	2.8	32 (≈ 66.6 µM)	0.25	5.7	17	0.14
Cc1nnc2n1-c1ccccc1C(c1ccc(Cl)cc1)=N[C@H]2CC(=O)Nc1ccc(C(=O)NO)cc1	16 (≈ 31.9 µM)	> 64	> 10	> 64	> 10	0.16	32 (≈ 63.9 µM)	0.11	0.87	34	31
Cc1sc2c(c1C)C(c1ccc(Cl)cc1)=N[C@@H](CC(=O)OC(C)(C)C)c1nnc(C)n1-2	64 (≈ 140 µM)	> 64	0.069	> 64	1.4		> 64		0.15	0.58	>2
